The values below come from article PMC3740683, “ML212: A small-molecule probe for investigating fluconazole resistance mechanisms in Candida albicans” (Beilstein Journal of Organic Chemistry, 2013).

Each structure is given as a SMILES string.

One data set relates to C. albicans CaCi-8. Description: Secondary assay 1: CaCi-8 with 8 µg/mL fluconazole (Alamar Blue growth). The class given is cell-based, Candida albicans. The following applies: Candida albicans, CACI8, 48 h, read-out: CaCi-8 IC50. On the procedure:
All of the compounds prepared above were evaluated for their ability to chemosensitize the C. albicans test strains CaCi-2 and CaCi-8 towards fluconazole. […] The DMSO/fluconazole combination served as an internal control. […]
(1/OD measured) × (desired final volume of inoculum) × 0.3 = volume of fungal culture (µL) to add to desired volume of growth medium. When added to media in wells, this yields a calculated starting OD of the fungal inoculum of 0.00015. […]
3) Use a Thermo Combi nL to dispense 20 µL/well of assay media into all wells. […]
EnVision (Perkin Elmer) plate reader setup: Ex 544 nm, Em 590 nm, bandwidth 12 nm, top read.
Secondary assay 1: CaCi-8 with 8 µg/mL fluconazole […]
35808016); geldanamycin (AG Scientific Catalog no. […]
PBS w/o calcium and magnesium (Cellgro Catalog no. 21-040-CV)
Synthetic defined growth medium
RPMI 1640 medium, (powder without sodium bicarbonate; Invitrogen Catalog no. […]
no. 028K0760); glucose 40% (w/v) in water (Sigma Catalog no. G-5400); MOPS buffer […]
1) Prepare 1× RPMI medium by dissolving 10.4 g powdered medium in 800 mL […]
2) Add 34.52 g MOPS. While stirring, adjust pH to 7.0 with 10 N NaOH.
3) Add 10 mL uridine solution, 50 mL glucose solution, adjust final volume to 1000 […]
Test strain: C. albicans CaCi-8
1) Inoculate 500 µL of strain from cryopreserved stock into a 250 mL shaker flask containing 30 mL growth medium. Shake at 30 °C overnight (16 hours).
(§1) 2) Read OD 600 of 1 mL of fungal culture in a cuvette using a standard optical density reader (Eppendorf BioPhotometer Plus), with growth medium as a […]
3) Dilute to a desired volume of fungal inoculum according to following formula: […]
1) Add fluconazole stock solution to fungal inoculum to achieve 8 µg/mL.
2) Add Pen/Strep to media to 1% concentration.
4) Dispense geldanamycin in positive control wells using Thermo Combi nL for a final concentration of 3 µM.
(§2) 5) Then, pin 100 nL of test compound from compound plates into assay plates using a CyBi-Well pin tool.
(§3) 6) Dispense 20 µL/well of culture into the assay media in all wells.
(§4) 7) Incubate the plates in a humidified (90% humidity) Liconic incubator at 37 °C without agitation for 48 hours.
(§5) 8) Dilute Alamar Blue 1:40 in Ca/Mg-free PBS.
(§6) 9) To all plates, add 5 µL/well of the diluted Alamar Blue to plates to a final dilution […]
10) Incubate the plates for 2 hours. […]

For another data set, the system named is C. albicans CaCi-2. The data set is described as follows: Secondary assay 2: CaCi-2 in the absence of fluconazole. The format is cell-based. The following applies: Candida albicans, CACI2; no fluconazole, 48 h incubation; read-out: IC50 against C. albicans in the absence of fluconazole. On the procedure: as §2, §3, §4, §5, §6
10) Incubate the plates for 2 hours.
11) Read the relative fluorescence intensity (RFU) of wells on a standard plate reader as a measure of relative fungal growth. EnVision (Perkin Elmer) plate reader setup: Ex 544 nm, Em 590 nm, bandwidth 12 nm, top read.
Secondary assay 2: CaCi-2 in the absence of fluconazole
Clear, flat-bottom, black 384-well plates (Corning Catalog no. 3712BC; Lot no.
35808016); geldanamycin (AG Scientific Catalog no. G-1047) 15 mM stock solution in […]
as §1
measured) × (desired final volume of inoculum) × 0.3 = volume of fungal culture […]
this yields a calculated starting OD of the fungal inoculum of 0.00015. […]
11) Read relative fluorescence intensity (RFU) of wells on a standard plate reader as […]
measure of relative fungal growth. EnVision (Perkin Elmer) plate reader settings: […]

Data set [1] can be described thus: Plasma stability, human plasma. As to conditions: 5 h incubation. The class given is in vitro ADME.
The nature of data set [2]: Plasma stability, murine plasma. The class given is in vitro ADME. The following applies: 5 h incubation.
Data set [3] concerns Hsp90-dependent signaling pathway. The data set is described as follows: Yeast-reporter assay, Hsp90-dependent signaling pathway. The class given is cell-based. As to conditions: Saccharomyces cerevisiae. Background: A reporter such as luciferase makes a cellular process visible.

Regarding `COC(=O)Cn1nc(-c2cccc(OC)c2)c2ccccc21` [Compound 36], the results for the IC50 (in the data set with C. albicans CaCi-8; in the data set on C. albicans CaCi-2; in data set [3]) were 1.5 ± 0.6 µM, above 26 µM and above 26 µM, respectively. In addition, the “remaining after incubation in plasma” value in data set [1] and in data set [2] was below 10% throughout.
